Where two headings read alike, the source gives them in different places.
Experiments:
[1] = molecular target: T1, progesterone receptor (PR) (Homo sapiens, UniProt P06401); experiment: PRE-luciferase reporter assay in T47D cells; type: cell-based; conditions: for PRE-luciferase Fold increase (10μM): compound 10 μM, over DMSO; for dose-dependent activation of PRE-luciferase: five increasing doses; for compound-induced PRE-luciferase activity in the presence of RU486: with 1 μM RU486, T47D cells
T1 sequence (P06401 679-933 limits assumed): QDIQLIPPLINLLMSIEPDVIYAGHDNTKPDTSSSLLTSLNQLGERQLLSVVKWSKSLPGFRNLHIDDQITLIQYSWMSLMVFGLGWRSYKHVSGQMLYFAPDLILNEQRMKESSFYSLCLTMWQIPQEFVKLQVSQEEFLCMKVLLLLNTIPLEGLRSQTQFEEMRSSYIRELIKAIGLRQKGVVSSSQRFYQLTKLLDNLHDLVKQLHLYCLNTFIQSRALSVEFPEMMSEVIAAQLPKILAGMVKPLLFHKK

[2] = molecular target: T2, progesterone receptor (PR) (Homo sapiens, UniProt P06401); experiment: PRE-luciferase reporter assay in human endometrial stromal cells; type: cell-based; conditions: for dose-dependent activation of PRE-luciferase: HESC; for compound-induced PRE-luciferase in the presence of RU486: compound 20 μM with 1 μM RU486, HESC
T2 sequence (P06401 1-933): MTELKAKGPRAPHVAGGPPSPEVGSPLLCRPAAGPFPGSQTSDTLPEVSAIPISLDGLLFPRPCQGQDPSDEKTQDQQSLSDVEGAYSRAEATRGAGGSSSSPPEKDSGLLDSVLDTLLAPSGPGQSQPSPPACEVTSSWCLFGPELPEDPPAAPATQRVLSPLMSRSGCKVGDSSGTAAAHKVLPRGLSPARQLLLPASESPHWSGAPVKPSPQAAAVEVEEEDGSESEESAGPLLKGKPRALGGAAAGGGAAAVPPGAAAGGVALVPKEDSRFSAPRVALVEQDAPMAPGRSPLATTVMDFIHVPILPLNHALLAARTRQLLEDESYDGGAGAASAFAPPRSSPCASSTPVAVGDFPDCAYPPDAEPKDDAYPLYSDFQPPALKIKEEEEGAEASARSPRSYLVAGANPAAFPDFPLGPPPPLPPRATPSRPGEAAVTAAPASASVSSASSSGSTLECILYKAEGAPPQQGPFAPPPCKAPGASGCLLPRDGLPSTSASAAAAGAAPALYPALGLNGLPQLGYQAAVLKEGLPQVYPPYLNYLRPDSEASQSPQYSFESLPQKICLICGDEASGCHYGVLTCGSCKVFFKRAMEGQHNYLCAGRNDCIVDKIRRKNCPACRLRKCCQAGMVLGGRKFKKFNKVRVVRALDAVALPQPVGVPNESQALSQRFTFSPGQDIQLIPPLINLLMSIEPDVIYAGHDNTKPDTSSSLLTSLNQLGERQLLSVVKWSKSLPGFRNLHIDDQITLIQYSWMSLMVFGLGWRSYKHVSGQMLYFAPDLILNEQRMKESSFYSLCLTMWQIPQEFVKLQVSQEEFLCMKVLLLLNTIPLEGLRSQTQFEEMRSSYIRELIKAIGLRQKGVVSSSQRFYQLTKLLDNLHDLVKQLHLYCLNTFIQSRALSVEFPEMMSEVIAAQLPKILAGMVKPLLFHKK

[3] = molecular target: T3, progesterone receptor ligand binding domain (PR-LBD-GST) (Homo sapiens, UniProt P06401); experiment: Progesterone receptor polarization competitive binding assay
T3 sequence (P06401 675-933): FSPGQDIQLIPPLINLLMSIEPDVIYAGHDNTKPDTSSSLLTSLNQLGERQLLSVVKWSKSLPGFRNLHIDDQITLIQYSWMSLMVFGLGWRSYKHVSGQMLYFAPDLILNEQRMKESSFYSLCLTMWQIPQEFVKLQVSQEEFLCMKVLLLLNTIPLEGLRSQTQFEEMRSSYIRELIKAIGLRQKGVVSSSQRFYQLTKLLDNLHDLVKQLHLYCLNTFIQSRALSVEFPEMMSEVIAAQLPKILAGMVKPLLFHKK

[4] = Sulforhodamine B; type: cell-based; conditions: human
[5] = test system: PRA and PRB protein; experiment: Western blot of PRA and PRB expression in T47D cells; type: cell-based, human; conditions: P4 1 μM, flavonoids 100 μM, 1.5 h or 16 h
[6] = test system: prolactin (PRL) mRNA; experiment: Quantitative PCR of decidualization gene PRL in HESC; type: cell-based, human; conditions: 100 μM, 48 h, with E2 and 8-Br-cAMP
[7] = test system: MPA-induced mammary tumors; conditions: rats; cited from earlier work
[8] = test system: ZBTB16 mRNA; experiment: Quantitative PCR of the P4 responsive gene ZBTB16 in T47D cells; type: cell-based, human; conditions: 100 μM, 24 h
[9] = test system: cannabinoid receptor 1 (CNR1) mRNA; experiment: Quantitative PCR of decidualization gene CNR1 in HESC; type: cell-based, human; conditions: 100 μM, 48 h, with E2 and 8-Br-cAMP
[10] = test system: T47D cells; experiment: Sulforhodamine B; type: cell-based
[11] = molecular target: T1, progesterone receptor (PR); experiment: PRE-luciferase in T47D cells in combination with P4; type: cell-based; conditions: 10 μM compound plus 100 nM P4, 24 h
[12] = test system: ovarian cancer; conditions: kaempferol intake, human observational studies; cited from earlier work

Row | SMILES | PRE-luciferase Fold increase (10μM) ([1]; T47D cells) | IC50 [3] | dose-dependent activation of PRE-luciferase ([1]; T47D cells) | compound-induced PRE-luciferase activity in the presence of RU486 [1] | downregulation of PRA and PRB protein expression [5] | induction of PRL expression [6] | induction of ZBTB16 mRNA [8] | CC50 at 24 h ([4]; T47D cells) | also measured
1 | CC(=O)O[C@]1(C(C)=O)CC[C@H]2[C@@H]3C[C@H](C)C4=CC(=O)CC[C@]4(C)[C@H]3CC[C@@]21C [MPA, medroxyprogesterone acetate, reference compound] |  |  |  |  |  |  |  |  | PRE-luciferase activity compared with P4 ([1]; T47D cells, data not shown): comparable activity; dose-dependent activation of PRE-luciferase [2]: dose-dependently activated; compound-induced PRE-luciferase in the presence of RU486 [2]: significantly inhibited
2 | O=c1c(-c2ccc(O)cc2)coc2cc(O)cc(O)c12 [Genistein] | 2.2 ± 1.1 fold | > 250 µM |  |  |  |  |  |  | CC50 at 24 h [4]: > 20 µM
3 | O=c1cc(-c2ccc(O)cc2)oc2cc(O)cc(O)c12 [Apigenin, apigenin] |  |  |  |  |  | induced PRL expression | did not induce |  | CC50 at 24 h [4]: > 20 µM; development of MPA-induced mammary tumors [7]: prevents the development
4 | O=c1c(-c2ccc(O)cc2)coc2cc(O)ccc12 [Daidzein, daidzein] | 1.0 ± 0.4 fold | > 250 µM |  |  |  |  |  | > 20 µM | 
5 | O=C1C[C@@H](c2ccc(O)cc2)Oc2cc(O)cc(O)c21 [Naringenin, naringenin] | 1.9± 0.4 fold | 6.9 ± 1.8 µM | dose-dependently activated | significantly abrogate | not observed | induced PRL expression | did not induce | > 20 µM | PRE-luciferase activation versus solvent control ([1]; 20 μM, T47D cells): reached significance; induction of CNR1 expression [9]: did not induce CNR1 expression
6 | O=c1c(O)c(-c2ccc(O)cc2)oc2cc(O)cc(O)c12 [Kaempferol, kaempferol] | 5.5 ± 1.8 fold | 1.5 ± 0.4 µM | dose-dependently activated | significantly abrogate | not observed | induced PRL expression | significantly induced | > 20 µM | concentration of highest PRE-luciferase activity from dose response curves ([1]; T47D cells): 7.5 µM; concentration above which PRE-luciferase activity started to decrease ([1]; likely due to cell death): > 10 µM; downregulation of P4-induced PRE-luciferase [11]: significantly downregulated; decrease of ovarian cancer incidence [12]: 40%; dose-dependent activation of PRE-luciferase [2]: dose-dependently activated; compound-induced PRE-luciferase in the presence of RU486 [2]: significantly inhibited

The next lines start with results.

Row | PRE-luciferase Fold increase (10μM) ([1]; T47D cells) | IC50 [3] | dose-dependent activation of PRE-luciferase ([1]; T47D cells) | compound-induced PRE-luciferase activity in the presence of RU486 [1] | SMILES | downregulation of PRA and PRB protein expression [5] | induction of PRL expression [6] | induction of ZBTB16 mRNA [8] | CC50 at 24 h ([4]; T47D cells) | also measured
7 |  |  | dose-dependently activated | significantly abrogate | CC(=O)[C@H]1CC[C@H]2[C@@H]3CCC4=CC(=O)CC[C@]4(C)[C@H]3CC[C@]12C [Progesterone, reference compound] | downregulation of PRB and more noticeably PRA |  |  |  | 
8 | 1.5 ± 0.6 fold | > 250 µM |  |  | COc1ccc(-c2coc3cc(O)ccc3c2=O)cc1 [Formononetin, formononetin] |  |  |  | > 20 µM | 
9 | 1.0 ± 0.1 fold |  |  |  | COc1ccc(-c2coc3cc(O)cc(O)c3c2=O)cc1 [Biochanin A, biochanin A] |  |  |  |  | IC50 ([3]; read-out: PR Binding IC50, pure compounds, purified PR): > 250 µM; CC50 [10]: > 20 µM

From publication PMC3601661 (Steroids, 2012)
